# Literature values, collected in patent publication US20040052761A1, “Localized delivery system for cancer drugs, phenstatin, using N-isopropylacrylamide” (priority 2002, published 2004).
# Experiments:
# tubulin [1] = settings: reference (1)
# tubulin [2] = settings: reference (1); remark: listed apart in the source
smiles,measurement,setting,value
COc1ccc(C(=O)c2cc(OC)c(OC)c(OC)c2)cc1O [Phenstatin],inhibition of tubulin polymerization,tubulin [1],potent inhibitor
same,inhibition of the binding of colchicines to tubulin,tubulin [2],potent inhibitor
